Measurements as given in patent US20240148821A1, “PHARMACEUTICAL USE OF CYCLIC PEPTIDE COMPOUND” (CHUGAI SEIYAKU KABUSHIKI KAISHA, priority 2021, published 2024).
Numbered stars: 1 amine (or outer) side, 2 acyl side, 3 side chain; on linkers, the order of the positions; unused ones are H or OH. Bridge positions count the residues as written; N and C are the ends. Square brackets hold non-standard residues; d marks the D form. Peptide text beside a SMILES is read from it. * marks the point of attachment. hPhe(3-Cl-4-CF3) = N[C@@H](CCc1ccc(C(F)(F)F)c(Cl)c1)C(=O)O; hPhe(3-F,4-CF3) = N[C@@H](CCc1ccc(C(F)(F)F)c(F)c1)C(=O)O; hPhe(4-CF3) = N[C@@H](CCc1ccc(C(F)(F)F)cc1)C(=O)O; NMePhe(4-Cl) = CN[C@@H](Cc1ccc(Cl)cc1)C(=O)O; NMedβ3hAla = C[C@H](CC(=O)[*:2])N(C)[*:1]; NMeGly(cPent) = CN[C@H](C(=O)O)C1CCCC1; NMeCha = CN[C@@H](CC1CCCCC1)C(=O)O; NMeF = CN[C@@H](Cc1ccccc1)C(=O)O; NMeI = CC[C@H](C)[C@H](NC)C(=O)O; Gly(cBu) = N[C@H](C(=O)O)C1CCC1; NMeD = CN[C@@H](CC(=O)O)C(=O)O; NMeL = CN[C@@H](CC(C)C)C(=O)O; NMePra = C#CC[C@H](NC)C(=O)O; NMeV = CN[C@H](C(=O)O)C(C)C; d(β3hA) = C[C@@H](N)CC(=O)O; NMeA = CN[C@@H](C)C(=O)O; NMeAib = CNC(C)(C)C(=O)O; Nle = CCCC[C@H](N)C(=O)O; Piperidide = C1CCN(*)CC1; Ac5c = NC1(C(=O)O)CCCC1; Aze = O=C(O)[C@@H]1CCN1; Sar = CNCC(=O)O

Each compound was assayed against protein-protein interaction between Kras and SOS1 (biotin-tagged human Kras loaded with GDP, His-tagged human SOS1) (Homo sapiens (Human), UniProt P01116, G12D) (assay: Protein-protein interaction inhibition between Kras and SOS1 (KrasG12D-SOS PPI) using AlphaScreen). Conditions: AlphaScreen; biotin-tagged human Kras loaded with GDP, His-tagged human SOS1; read-out: KRAS G12D-SOS PPI IC50.
Assay type: biochemical

**Q.** For `C#CC[C@H]1C(=O)N[C@@H]([C@@H](C)CC)C(=O)N(C)[C@@H](C)C(=O)N2CC[C@H]2C(=O)N(C)[C@@H](CC2CCCCC2)C(=O)N(C)CC(=O)N[C@@H](CCc2ccc(C(F)(F)F)c(Cl)c2)C(=O)N2CCC[C@H]2C(=O)NC2(CCCC2)C(=O)N(C)[C@@H](C(C)C)C(=O)N(C)[C@H](C(=O)N2CCCCC2)CC(=O)N1C` [Compound 559] ([NMePra]I[NMeA][Aze][NMeCha][Sar][hPhe(3-Cl-4-CF3)]P[Ac5c][NMeV][NMeD]-Piperidide; lactam N-11), which IC50 is on record?
**A.** 1.7 nM

**Q.** For `CC[C@H](C)[C@@H]1NC(=O)[C@H](CC(C)C)N(C)C(=O)C[C@@H](C(=O)N2CCCCC2)N(C)C(=O)[C@H](C2CCCC2)N(C)C(=O)C2(CCCC2)NC(=O)[C@@H]2CCCN2C(=O)[C@H](CCc2ccc(C(F)(F)F)c(F)c2)NC(=O)CN(C)C(=O)[C@H](CC2CCCCC2)N(C)C(=O)[C@@H]2CCN2C(=O)[C@H](C)N(C)C1=O` [Compound 563] ([NMeL]I[NMeA][Aze][NMeCha][Sar][hPhe(3-F,4-CF3)]P[Ac5c][NMeGly(cPent)][NMeD]-Piperidide; lactam N-11), which IC50 is on record?
**A.** 1.1 nM

**Q.** How did the IC50 turn out when `CCCC[C@@H]1NC(=O)[C@H](CCc2ccc(C(F)(F)F)c(Cl)c2)NC(=O)CN(C)C(=O)[C@H](Cc2ccc(Cl)cc2)N(C)C(=O)CN(C)C(=O)CN(C)C(=O)[C@H]([C@@H](C)CC)NC(=O)[C@H](CC(C)C)N(C)C(=O)C[C@@H](C)N(C)C(=O)[C@H](CC(C)C)NC(=O)[C@H](Cc2ccccc2)N(C)C1=O` [Compound 566] (cyclo(I[Sar][Sar][NMePhe(4-Cl)][Sar][hPhe(3-Cl-4-CF3)][Nle][NMeF]L[NMedβ3hAla][NMeL])) was run?
**A.** 160 nM

**Q.** `CC[C@H](C)[C@@H]1NC(=O)[C@H](CC(C)C)N(C)C(=O)C[C@@H](C(=O)N(C)C)NC(=O)[C@H]([C@@H](C)CC)N(C)C(=O)C2(CCCC2)NC(=O)[C@@H]2CCCN2C(=O)[C@H](CCc2ccc(C(F)(F)F)c(Cl)c2)NC(=O)CN(C)C(=O)[C@H](CC2CCCCC2)N(C)C(=O)[C@@H]2CCN2C(=O)[C@H](C)N(C)C1=O` [Compound 568] ([NMeL]I[NMeA][Aze][NMeCha][Sar][hPhe(3-Cl-4-CF3)]P[Ac5c][NMeI]D-NMe2; lactam N-11) was tested. Which IC50 did it give?
**A.** 8 nM

**Q.** With `CC[C@H](C)[C@@H]1NC(=O)[C@H](CC2CCCCC2)N(C)C(=O)C[C@@H](C(=O)N2CCCCC2)N(C)C(=O)[C@H](C(C)C)N(C)C(=O)C2(CCCC2)NC(=O)[C@@H]2CCCN2C(=O)[C@H](CCc2ccc(C(F)(F)F)c(Cl)c2)NC(=O)CN(C)C(=O)[C@H](CC2CCCCC2)N(C)C(=O)[C@@H]2CCN2C(=O)[C@H](C)N(C)C1=O` [Compound 572] ([NMeCha]I[NMeA][Aze][NMeCha][Sar][hPhe(3-Cl-4-CF3)]P[Ac5c][NMeV][NMeD]-Piperidide; lactam N-11) as the compound, how does the IC50 read?
**A.** 39 nM

**Q.** With `CC(C)C[C@H]1C(=O)N[C@@H](C2CCC2)C(=O)N(C)[C@@H](C)C(=O)N2CC[C@H]2C(=O)N(C)[C@@H](CC2CCCCC2)C(=O)N(C)CC(=O)N[C@@H](CCc2ccc(C(F)(F)F)c(Cl)c2)C(=O)N2CCC[C@H]2C(=O)NC2(CCCC2)C(=O)N(C)[C@@H](C(C)C)C(=O)N[C@H](C)CC(=O)N1C` [Compound 580] (cyclo([Ac5c][NMeV][d(β3hA)][NMeL][Gly(cBu)][NMeA][Aze][NMeCha][Sar][hPhe(3-Cl-4-CF3)]P)) as the compound, how does the IC50 read?
**A.** 66 nM

**Q.** `CC[C@H](C)[C@@H]1NC(=O)[C@H](CC2CCCCC2)N(C)C(=O)C[C@@H](C)NC(=O)[C@H](CC(C)C)N(C)C(=O)C2(CCCC2)NC(=O)[C@H](CC(C)C)N(C)C(=O)[C@H](CCc2ccc(C(F)(F)F)cc2)NC(=O)CN(C)C(=O)[C@H](Cc2ccc(Cl)cc2)N(C)C(=O)CN(C)C(=O)CN(C)C1=O` [Compound 583] (cyclo([Ac5c][NMeL][d(β3hA)][NMeCha]I[Sar][Sar][NMePhe(4-Cl)][Sar][hPhe(4-CF3)][NMeL])) was tested. Which IC50 did it give?
**A.** 370 nM

**Q.** How did the IC50 turn out when `CC[C@H](C)[C@@H]1NC(=O)[C@H](C)N(C)C(=O)C[C@@H](C)NC(=O)[C@H](CC(C)C)N(C)C(=O)[C@H](C(C)C)N(C)C(=O)[C@H](CC(C)C)N(C)C(=O)[C@H](CCc2ccc(C(F)(F)F)cc2)NC(=O)CN(C)C(=O)[C@H](Cc2ccc(Cl)cc2)N(C)C(=O)CN(C)C(=O)CN(C)C1=O` [Compound 588] (cyclo(I[Sar][Sar][NMePhe(4-Cl)][Sar][hPhe(4-CF3)][NMeL][NMeV][NMeL][d(β3hA)][NMeA])) was run?
**A.** 360 nM

**Q.** How did the IC50 turn out when `CC[C@H](C)[C@@H]1NC(=O)[C@H](CC2CCCCC2)N(C)C(=O)C[C@@H](C)N(C)C(=O)[C@H](CC(C)C)NC(=O)C(C)(C)N(C)C(=O)[C@H](CC(C)C)NC(=O)[C@H](CCc2ccc(C(F)(F)F)cc2)NC(=O)CN(C)C(=O)[C@H](Cc2ccc(Cl)cc2)N(C)C(=O)CN(C)C(=O)CN(C)C1=O` [Compound 595] (cyclo(I[Sar][Sar][NMePhe(4-Cl)][Sar][hPhe(4-CF3)]L[NMeAib]L[NMedβ3hAla][NMeCha])) was run?
**A.** 290 nM

**Q.** How did the IC50 turn out when `CC[C@H](C)[C@@H]1NC(=O)[C@H](CC(C)C)N(C)C(=O)C[C@@H](C(=O)N2CCCCC2)N(C)C(=O)[C@H](C(C)C)N(C)C(=O)C2(CCCC2)NC(=O)[C@@H]2CCCN2C(=O)[C@H](CCc2ccc(C(F)(F)F)c(F)c2)NC(=O)CN(C)C(=O)[C@H](CC2CCCCC2)N(C)C(=O)[C@@H]2CCN2C(=O)CN(C)C1=O` [Compound 599] ([NMeL]I[Sar][Aze][NMeCha][Sar][hPhe(3-F,4-CF3)]P[Ac5c][NMeV][NMeD]-Piperidide; lactam N-11) was run?
**A.** 12 nM
